Assay results from paper PMC5471252, “Anti-leukemia activity of a Hsp70 inhibitor and its hybrid molecules” (Scientific Reports, 2017).
“Also recorded” adds a separate entry of the source.

How the values were obtained:
[1] = tested on: K562 cells; test: MTT assay, cell viability of K562 cells; assay type: cell-based; settings: Homo sapiens, 48 h, mean ± s.d., n = 3, read-out: IC50 values of compounds for leukemia cells
[2] = molecular target: T1, ATPase domain (1-386 residues) of human Hsc70 (Homo sapiens, UniProt P11142); test: STD NMR competition with ATP-γ-S; assay type: binding; settings: ATP-γ-S in place of ATP, Az phosphate salt form
T1 construct: pET28a-human Hsc70 ATPase domain (1-386 residues); inferred from the pET28a vector and nickel-column purification; made in house; host or cells: E. coli BL21 (DE3)
Experimental: However, the detailed mode of Az binding to the proteins has not been elucidated. To gain information about the molecular basis of Az binding to Hsp70 proteins, NMR studies were carried out on a complex of Az with an ATPase domain (1-386 residues) of human Hsc70. Saturation transfer difference (STD) NMR studies were conducted initially to obtain information on Az binding to the ATPase domain of Hsc70[30]. […] Next, we evaluated whether Az affects binding of ATP to the ATPase domain. For STD experiments, less hydrolytic ATP-γ-S was used in place of ATP.
For STD experiments, 10 μM of an ATPase domain of Hsc70, 1 mM of ATP-γ-S and Az (a phosphate salt form) were used. For competition studies between ATP-γ-S and Az, STD of the sample with 5 μM ATPase domain of Hsc70 and 500 μM ATP-γ-S was initially measured, and further titrated with Az up to 1 mM. The ratios of ATP-γ-S to Az were 1:0, 1:1, 1:1.5, and 1:2. All STD NMR spectra were obtained using 20 mM solutions of deuterated Tris buffer with 5% (v/v) DMSO-d6 (pD 7.2).

[3] = tested on: AIF translocation in HL-60 and K562 cells; test: AIF translocation to the nucleus (western blot, immunocytochemistry); assay type: cell-based, human; settings: 24 h; 2 μM for Az-O3-GD
From the text: Apoptosis-inducing factor (AIF) is known to be translocated from the cytosol to the nucleus during caspase-independent apoptosis (Supplementary Fig. S8b)[39]. In addition, it is also known that Hsp70 interacts with AIF directly and this interacting event results in blocking translocation of AIF to the nucleus and, in turn, prevents caspase-independent apoptosis. Because of these phenomena, we tested if Az has an influence on AIF-mediated caspase-independent apoptosis. To probe this issue, HL-60 and K562 cells were exposed to Az and the levels of AIF in the cytosolic and nuclear fractions were then determined. AIF translocation to the nucleus was not observed in Az-treated cells, based on western blot analysis (Fig. 4d). Additional evidence to support this conclusion was obtained from immunocytochemical analysis of leukemia cells treated with Az (Fig. 4d).
(§1) Western blot analysis. […] peroxidase-conjugated goat anti-rabbit IgG (1:2000, Santa Cruz Bio Technology) and goat anti-mouse IgG (1:2000, Santa Cruz Bio Technology) were used as the secondary antibodies. The blots were developed by using a West-ZOL® plus Western Blot Detection System (Intron Biotechnology Inc., South Korea). Western blot signals were analyzed by using a G:BOX Chemi Fluorescent & Chemiluminescent Imaging System.
Immunocytochemistry. […] Cell images were analyzed using the ZEN 2011 software.

[4] = tested on: HL-60 cells; test: MTT assay, cell viability of HL-60 cells; assay type: cell-based; settings: Homo sapiens, 48 h, mean ± s.d., n = 3, read-out: IC50 values of compounds for leukemia cells
[5] = tested on: Ba/F3 cells producing imatinib-resistant mutant Bcr-Abl (T315I); test: MTT assay, Ba/F3 cells producing mutant Bcr-Abl (T315I); assay type: cell-based, murine; settings: Mus musculus, BaF3, 24 h, read-out: IC50 values, cytotoxicity towards cells expressing mutant Abl
Experimental: Next, the cytotoxic effects of Az on wild-type and mutant Bcr-Abl expressing cells were evaluated.
Cells were exposed to each compound (a HCl salt form) at various concentrations for indicated time periods (24 or 48 h) in culture media. MTT assays were conducted according to known procedures. The absorbance at 570 nm was determined by employing a microplate reader (TECAN, Infinite® 200 PRO).
Cells were treated with various concentrations of each compound for 24 h. Cell death was measured by using an MTT assay (mean ± s.d., n = 3).

[6] = tested on: Jurkat cells; test: MTT assay, cell viability of Jurkat cells; assay type: cell-based; settings: Homo sapiens, 48 h, mean ± s.d., n = 3, read-out: IC50 values of compounds for leukemia cells
[7] = tested on: U937 cells; test: MTT assay, cell viability of U937 cells; assay type: cell-based; settings: Homo sapiens, U-937, 48 h, mean ± s.d., n = 3, read-out: IC50 values of compounds for leukemia cells
[8] = tested on: Hsp70 level in HL-60 and K562 cells; test: Western blot of Hsp70 and Hsp90 levels; assay type: cell-based, human; settings: cells treated 24 h
Experimental: Because Az-O3-GD promotes caspase activation in leukemia cells, it was anticipated that procaspase-9, procaspase-3 and PARP would be cleaved in treated cells. To test this possibility, HL-60 and K562 cells were exposed to Az-O3-GD, along with Az and GD as controls and western blot analysis was then carried out. […] Although Az-O3-GD upregulates Hsp70, the presence of the Hsp70 inhibitor in this hybrid causes its cytotoxicity against leukemia cells to be higher than that of GD. Finally, we examined the effect of Az-O3-GD on AIF-mediated caspase-independent apoptosis. To this end, HL-60 and K562 cells were incubated with Az-O3-GD for 24 h.
as §1

[9] = tested on: KG-1 cells; test: MTT assay, cell viability of KG-1 cells; assay type: cell-based; settings: Homo sapiens, 48 h, mean ± s.d., n = 3, read-out: IC50 values of compounds for leukemia cells
[10] = tested on: HL-60 and K562 cells; test: Flow cytometry, fluorescein-annexin V and PI staining; assay type: cell-based, human; settings: 24 h; 10 µM Az, 10 µM GD or 4 µM Az-O3-GD
Experimental: To determine whether Az promotes leukemia cell death via apoptosis, acute leukemia HL-60 and chronic leukemia K562 cells were independently incubated with Az. The treated cells were then exposed to a mixed solution of fluorescein-annexin V and propidium iodide (PI) and flow cytometry analysis was conducted. […] The size of the treated cells was also assessed by using flow cytometry. […] We also investigated if the mitochondrial membrane potential in cells treated with Az is disrupted. To test this possibility, HL-60 and K562 cells were exposed to Az and subsequently stained with a membrane potential sensitive JC-1 probe. […] This serves as another evidence for apoptosis induced by Az.
HL-60 and K562 cells were incubated with each compound for 24 h in culture media. Cells were re-suspended with 500 μL binding buffer (10 mM HEPES, […] and 2.5 mM CaCl2, pH 7.5) and then incubated with the FITC-annexin V apoptosis detection kit with PI according to the protocol provided by the manufacturer. Flow cytometry was carried out by using a BD FACSVerse™ instrument (BD Biosciences) and the data were analyzed by using a FlowJo™ software (BD Biosciences).

T1 sequence (P11142 1-386): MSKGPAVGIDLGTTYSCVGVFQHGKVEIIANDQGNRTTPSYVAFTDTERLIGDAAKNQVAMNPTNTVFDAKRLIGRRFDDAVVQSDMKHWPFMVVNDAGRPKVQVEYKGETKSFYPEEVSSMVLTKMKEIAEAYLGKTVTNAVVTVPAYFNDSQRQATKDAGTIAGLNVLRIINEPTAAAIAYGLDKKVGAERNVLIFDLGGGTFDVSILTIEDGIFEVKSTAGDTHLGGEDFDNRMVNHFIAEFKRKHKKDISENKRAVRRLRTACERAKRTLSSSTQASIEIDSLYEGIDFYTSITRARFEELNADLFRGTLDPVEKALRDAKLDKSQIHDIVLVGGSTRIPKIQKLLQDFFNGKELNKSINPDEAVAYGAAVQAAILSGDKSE

## COc1ccc(-c2nc(-c3cc(C(F)(F)F)cc(C(F)(F)F)c3)n(Cc3ccc(C(=O)NCCOCCOCCN)cc3)c2-c2ccc(OC)cc2)cc1 [Az, apoptozole]
[1]
  IC50: 3.6 ± 0.52 µM
[2]
  effect on binding of ATP to the ATPase domain: blocks ATP binding
[3]
  AIF translocation to the nucleus: not observed
[4]
  IC50: 2.8 ± 0.87 µM
[5]
  IC50: 2.2 µM
[6]
  IC50: 3.1 ± 0.61 µM
[7]
  IC50: 4.7 ± 0.77 µM
[8]
  translational level of Hsp70: does not affect the translational levels of Hsp70 and Hsp90
[9]
  IC50: 3.3 ± 0.71 µM
[10]
  apoptosis, annexin V binding and PI uptake: positive annexin V binding and positive PI uptake; also recorded: induces apoptosis
